Source: patent US7563886B2, “Nucleoside releasing functional unit through oxidation and process for producing oligonucleotide containing thereof” (Japan Science and Technology Agency, priority 2003, dated 2009)

Legend:
[1] = Oxidation with sodium hexachloroiridate(IV); conditions: in 15 minutes
[2] = Photooxidation of single-stranded oligonucleotide, irradiation at 366 nm in the presence of riboflavin; type: physicochemical; conditions: single-stranded ODN, irradiated at 366 nm in the presence of riboflavin
Text: The inventors conducted photooxidization of the oligonucleotide (7) containing benzoyl-^edaG (^Bz-edaG), for example, 5′-d(TATAAT^Bz-edaGTAATAT)-3′.
The single-stranded oligonucleotide (ODN) 5′-d(TATAAT^edaGTAATAT)-3′ was irradiated at 366 nm in the presence of riboflavin.

[3] = Measurement of oxidation potential (E1/2); type: physicochemical; conditions: vs. NHE; 100 mM LiClO4 solution, room temperature
Experimental: The oxidation potential (E1/2) of benzoyl-^edaG was measured in 100 mM LiClO4 solution at room temperature by ALS electrochemical analyzer model 660-A. The scanning speed was 100 mV/sec. A glass carbon electrode was used as a sample electrode; a platinum wire as a counter electrode; and SCE as a reference electrode.

Row | decomposed at the site of the modified edaG [1] | t1/2 of decomposition [2] | oxidation potential (E1/2) [3] | Substance
1 | 57% | 6.2 min |  | 5′-d(TATAAT^Bz-edaGTAATAT)-3′
2 |  |  | 0.59 V | benzoyl-^edaG [^Bz-edaG]
3 |  | 6.2 min |  | 5′-d(TATAAT^edaGTAATAT)-3′
